Read-outs that look alike come from different tables or passages of the source.
How the values were obtained:
[1] = system: high risk patients without known low EF or HF; assay type: in vivo; conditions: subgroup with documented preserved ventricular function (n=4676), vs placebo
[2] = system: high risk patients without known low EF or HF; assay type: in vivo; conditions: for Blood pressure: active group
Experimental: A large-scale clinical trial (HOPE (Heart Outcomes Prevention Evaluation) Study) was designed to examine the effect of the ACE inhibitor ramipril versus placebo in reducing cardiovascular events. 9,297 high risk patients (≧55 yrs with evidence of vascular disease or diabetes plus one additional risk factor), without known low EF or HF were randomized to receive Ramipril (2.5 mg to 10 mg/day) or matching placebo for a mean duration of 5 years. The primary outcome was the first occurrence of the composite of cardiovascular (CV) mortality, myocardial infarction or stroke. The study was stopped at 4.5 years by the independent Data and Safety Monitoring Board because of convincing evidence of benefit. 646 (13.9%) patients allocated to Ramipril and 816 (17.5%) placebo patients experienced a primary outcome (Relative risk, RR of 0.78, 95% confidence interval of 0.70-0.86; Portable=0.000002). There were clear and significant reductions separately in CV deaths (6.0% v. 8.0%, RR of 0.75, Portable=0.0002), myocardial infarction (9.8% v.12.0%, RR of 0.68, Portable=0.0002). […] Other outcomes included worsening or new angina, or new heart failure (irrespective of hospitalization).
In a double blind, 2×2 factorial, randomized trial, HOPE evaluated Ramipril or vitamin E in 9541 patients. A substudy of 244 patients tested a low dose (2.5 mg/day) versus the full dose (10 mg/day) of Ramipril. The primary outcome in these 244 patients is reported as a footnote to Table 3. Therefore the main results report is on 9,297 patients randomized to receive 10 mg Ramipril or equivalent placebo. The effects of vitamin E are reported separately. The design of HOPE has been published (Can J Cardiology 1996; 12(2); 127-137), a brief summary follows below:
Men and women were eligible if aged 55 years and older, with prior coronary artery disease, stroke, peripheral vascular disease or diabetes plus at least one other risk factor (current or previous hypertension, elevated total cholesterol, low HDL cholesterol, current cigarette smoking, known microalbuminuria or previous vascular disease). Patents who had HF, were known to have low EF, those on ACE-I or vitamin E, those with uncontrolled hypertension or overt nephropathy, or recent MI (<4 weeks) were excluded. In this large, simple trial it was impractical to measure left ventricular function in all patients (none of whom had heart failure or were considered to need an ACE-I). Instead, echocardiograms were done in all patients (n=496) from 3 centres who entered a substudy. […] Additionally, an audit of charts identified that in 5285 patients a prerandomization and evaluation of ventricular function had been conducted. Only 409 (7.7%) were documented to have low EF and none had heart failure prior to randomization. A separate analysis of those documented to have a preserved EF (n=4876) is provided. After obtaining written informed consent, all eligible patients entered a run in phase where they received 2.5 mg Ramipril OD for 7-10 days followed by matching placebo for 10-14 days. Patients who were non compliant (<80% of pills taken), who experienced side effects, developed abnormal creatinine or potassium levels or those who withdrew consent were excluded. 9,541 were included; 9,297 were randomized to receive Ramipril at 10 mg/day or matching placebo, with 244 randomized to low dose (2.5 mg/day) of Ramipril.
At randomization, patients were allocated to receive Ramipril at 2.5 mg OD for one week, then 5 mg OD for another 3 weeks, followed by 10 mg once daily, or matching placebo. Additionally, all patients were randomized to vitamin E 400 IU/day or matching placebo. Follow-up visits occurred at 1 month, 6 months and then at 6 month intervals. At each visit, data were collected on events, compliance, and side effects leading to alteration of study medications. All primary and secondary events were documented on additional forms and were centrally adjudicated using standardized definitions. […]

[3] = system: patients randomized to captopril compared to a diuretic or beta blocker; conditions: cited from earlier work
[4] = Ramipril 10 mg/day group, n=4645
[5] = Ramipril group, diabetic nephropathy, renal dialysis, laser therapy
[6] = Ramipril group, irrespective of hospitalization
[7] = both, human, in vivo, 4.5 years

Which “Primary outcome RR, documented EF≧0.40” value [1] does the source give for CCOC(=O)[C@H](CCc1ccccc1)N[C@@H](C)C(=O)N1[C@H](C(=O)O)C[C@@H]2CCC[C@@H]21 [Ramipril, ramipril] here?
Its value is 0.73.

And the “Relative risk reduction (conditional RRR)” value ([2]; 2nd year)?
Its value is 22%.

And the “Relative risk reduction (conditional RRR)” value ([2]; 3rd year)?
The value was 26%.

What about the “Relative risk reduction (conditional RRR)” value ([2]; 4th year) of the same compound?
Its value is 27%.

And the “Relative risk reduction in the primary outcome at interim analysis” value ([2]; DSMB interim look, Mar. 22, 1999, 95% CI 12% to 28%)?
The value was 20%.

What about the “Primary outcome CV death, MI, stroke: % of patients” value [2, 4] of the same compound?
Its value is 13.9%.

And the “Primary outcome CV death, MI, stroke: number of patients” value [2, 4]?
The value was 646.

And the “New diagnosis of diabetes: % of patients” value ([2]; Ramipril group)?
Its value is 3.8%.

What about the “New diagnosis of diabetes: number of patients” value ([2]; Ramipril group) of the same compound?
The value was 108.

What about the “Stopping blinded medication for hypotension/dizziness: %” value ([2]; Ramipril group) of the same compound?
Its value is 1.8%.

And the “Stopping blinded medication for hypotension/dizziness: number” value ([2]; Ramipril group)?
Its value is 82.

And the “Primary outcome: number of patients at 2 years” value ([2]; Ramipril group, at 2 years)?
The value was 323.

What about the “Cardiac arrests: % of patients” value ([2]; Ramipril group, n=4645) of the same compound?
The value was 0.8%.

And the “Cardiac arrests: number of patients” value ([2]; Ramipril group, n=4645)?
Its value is 37.

What about the “Heart failure hospitalizations: % of patients” value ([2]; Ramipril group, n=4645) of the same compound?
The value was 3.2%.

What about the “Heart failure hospitalizations: number of patients” value ([2]; Ramipril group, n=4645) of the same compound?
Its value is 150.

And the “MI: % of patients” value ([2]; Ramipril group, n=4645)?
The value was 9.8%.

And the “MI: number of patients” value ([2]; Ramipril group, n=4645)?
Its value is 453.

What about the “Revascularization: % of patients” value ([2]; Ramipril group, n=4645) of the same compound?
Its value is 16.0%.

What about the “Revascularization: number of patients” value ([2]; Ramipril group, n=4645) of the same compound?
The value was 742.

And the “Strokes: % of patients” value ([2]; Ramipril group, n=4645)?
Its value is 3.3%.

What about the “Strokes: number of patients” value ([2]; Ramipril group, n=4645) of the same compound?
Its value is 155.

And the “Total mortality: % of patients” value ([2]; Ramipril group, n=4645)?
Its value is 10.3%.

And the “Total mortality: number of patients” value ([2]; Ramipril group, n=4645)?
Its value is 476.

And the “UA with ECG changes: % of patients” value ([2]; Ramipril group, n=4645)?
Its value is 3.4%.

What about the “UA with ECG changes: number of patients” value ([2]; Ramipril group, n=4645) of the same compound?
Its value is 179.

What about the “Unstable angina hospitalization: % of patients” value ([2]; Ramipril group, n=4645) of the same compound?
Its value is 12.1%.

And the “Unstable angina hospitalization: number of patients” value ([2]; Ramipril group, n=4645)?
The value was 564.

What about the “Primary outcome: number of patients within 1 year after randomization” value ([2]; Ramipril group, within 1 year) of the same compound?
The value was 167.

What about the “Permanently discontinuing blinded medication, % of alive” value ([2]; Ramipril group, % of alive) of the same compound?
Its value is 29.1%.

What about the “Stopping blinded medication at any time, % of alive” value ([2]; Ramipril group, % of alive) of the same compound?
Its value is 33.0%.

What about the “Diabetic complications: % of patients” value [2, 5] of the same compound?
The value was 6.4%.

And the “Diabetic complications: number of patients” value [2, 5]?
Its value is 298.

What about the “All heart failure (new heart failure): number of patients” value [2, 6] of the same compound?
The value was 343.

What about the “All heart failure: % of patients” value [2, 6] of the same compound?
The value was 7.4%.

And the “Worsening angina: % of patients” value [2, 6]?
The value was 23.8%.

And the “Worsening angina: number of patients” value [2, 6]?
The value was 1104.

What about the “Difference in BP reduction, diastolic” value ([2]; Ramipril vs placebo) of the same compound?
Its value is −2 mmHg.

What about the “Difference in BP reduction, systolic” value ([2]; Ramipril vs placebo) of the same compound?
The value was −3 mmHg.

And the “Impact on hospitalizations for unstable angina” value ([2]; Ramipril vs placebo)?
Its value is “no impact”.

And the “Increase in patients stopping medication for dizziness/hypotension” value ([2]; Ramipril vs placebo, nonsignificant)?
Its value is 0.3%.

And the Blood pressure ([2]; at 1 month, 139/79 at entry)?
The Blood pressure was 133/76.

What about the Blood pressure ([2]; at 2 years) of the same compound?
The Blood pressure was 135/76.

And the Blood pressure ([2]; at the end of the study)?
The Blood pressure was 136/76.

What about the “Excess of patients stopping for cough” value [2, 7] of the same compound?
Its value is 5%.

And the “No. permanently discontinuing blinded medication” value [2, 7]?
The value was 1207.

And the “No. stopping blinded medication at any time” value [2, 7]?
The value was 1370.

What about the “Stopping blinded medication for angioedema: %” value [2, 7] of the same compound?
The value was 0.3%.

What about the “Stopping blinded medication for angioedema: number” value [2, 7] of the same compound?
The value was 16.

What about the “Stopping blinded medication for cough: %” value [2, 7] of the same compound?
The value was 7.2%.

And the “Stopping blinded medication for cough: number” value [2, 7]?
Its value is 335.

What about the “Composite outcome of CV death, MI, stroke, heart failure, revascularization and diabetic complications” value ([2]; diabetic patients with no clinical manifestations of CVD (1100)) of the same compound?
The value was “significantly reduced”.

And the Relative risk reduction ([2]; first year of the trial)?
Its Relative risk reduction is “about 11%”.

What about the “Primary outcome relative risk conditioned on survival up to the prior year” value ([2]; fourth year) of the same compound?
Its value is 0.73.

And the Tolerability ([2]; in the trial)?
The Tolerability was “generally well tolerated”.

What about the “Primary outcome relative risk conditioned on survival up to the prior year” value ([2]; second year) of the same compound?
Its value is 0.78.

What about the “Primary composite outcome relative risk (95% CI)” value ([2]; subgroup Age 65+, 5128 patients) of the same compound?
The value was 0.75 (0.66-0.85).

And the “Primary composite outcome relative risk (95% CI)” value ([2]; subgroup Age <65, 4169 patients)?
Its value is 0.82 (0.70-0.98).

And the “Primary composite outcome relative risk (95% CI)” value ([2]; subgroup CAD+, 7475 patients)?
Its value is 0.80 (0.71-0.89).

And the “Primary composite outcome relative risk (95% CI)” value ([2]; subgroup CAD−, 1822 patients)?
The value was 0.71 (0.54-0.93).

What about the “Primary composite outcome relative risk (95% CI)” value ([2]; subgroup CVD+, 8160 patients, Ramipril vs placebo) of the same compound?
The value was 078 (0.71-0.87).

What about the “Primary composite outcome relative risk (95% CI)” value ([2]; subgroup CVD−, 1137 patients) of the same compound?
Its value is 0.81 (0.56-1.20).

And the “Primary composite outcome relative risk (95% CI)” value ([2]; subgroup Cerebro VD+, 1013 patients)?
The value was 0.73 (0.56-0.95).

And the “Primary composite outcome relative risk (95% CI)” value ([2]; subgroup Cerebro VD−, 8284 patients)?
The value was 0.79 (0.71-0.88).

What about the “Primary composite outcome relative risk (95% CI)” value ([2]; subgroup Diabetes+, 3578 patients) of the same compound?
The value was 0.76 (0.65-0.89).

And the “Primary composite outcome relative risk (95% CI)” value ([2]; subgroup Diabetes−, 5719 patients)?
Its value is 0.79 (0.69-0.91).

And the “Primary composite outcome relative risk (95% CI)” value ([2]; subgroup Female, 2480 patients)?
Its value is 0.76 (0.61-0.95).

And the “Primary composite outcome relative risk (95% CI)” value ([2]; subgroup Hypertension+, 4355 patients)?
Its value is 0.75 (0.65-0.87).

And the “Primary composite outcome relative risk (95% CI)” value ([2]; subgroup Hypertension−, 4942 patients)?
Its value is 0.81 (0.70-0.93).

And the “Primary composite outcome relative risk (95% CI)” value ([2]; subgroup MA+ (microalbuminuria), 1963 patients)?
Its value is 0.71 (0.59-0.86).

What about the “Primary composite outcome relative risk (95% CI)” value ([2]; subgroup MA−, 7334 patients) of the same compound?
Its value is 0.82 (0.72-0.92).

And the “Primary composite outcome relative risk (95% CI)” value ([2]; subgroup Male, 6817 patients)?
The value was 0.79 (0.70-0.89).

And the “Primary composite outcome relative risk (95% CI)” value ([2]; subgroup PVD+, 4046 patients)?
Its value is 0.74 (0.64-0.86).

What about the “Primary composite outcome relative risk (95% CI)” value ([2]; subgroup PVD−, 5251 patients) of the same compound?
Its value is 0.84 (0.72-0.98).

What about the “Primary composite outcome relative risk (95% CI)” value ([2]; subgroup Prior MI+, 4892 patients) of the same compound?
Its value is 0.79 (0.69-0.90).

And the “Primary outcome, events/patients, documented EF≧0.40” value ([2]; subgroup with documented EF≧0.40 (n=4676), Ramipril group)?
The value was 317/2339.

What about the “Primary outcome relative risk conditioned on survival up to the prior year” value ([2]; third year) of the same compound?
The value was 0.74.

And the “Primary outcome RR at 2 years” value ([2]; vs placebo, at 2 years)?
The value was 0.81.

What about the “Primary outcome RR within 1 year after randomization” value ([2]; vs placebo, within 1 year) of the same compound?
Its value is 0.85.

For C[C@H](CS)C(=O)N1CCC[C@H]1C(=O)O [captopril], which Newly diagnosed diabetes [3] is on record?
Its Newly diagnosed diabetes is “reduction in newly diagnosed diabetes”.
